Reference: patent US10280138B2, “Nitric oxide donating derivatives of fluprostenol” (NICOX S.A., priority 2015, dated 2019)

Test system: transiently ocular hypertensive New Zealand white rabbits
Assay: Intraocular pressure (IOP) lowering activity in hypertonic saline-induced IOP increase in rabbits
Assay type: in vivo
Details: for Mean IOP changes vs vehicle and baseline, 60 min: 60 min after topical application, hypertonic saline 5% intravitreal; for Mean IOP changes vs vehicle and baseline, 60 min / IOP60 min reduction vs vehicle / Mean IOP changes vs vehicle and baseline, 90 min / Mean IOP changes vs vehicle and baseline, 180 min / Mean IOP changes vs vehicle and baseline, 300 min / Mean IOP changes vs vehicle and baseline, 120 min / Mean IOP changes vs vehicle and baseline, 240 min / Maximal IOP reduc.: dose (%); for IOP60 min reduction vs vehicle / Delta60 min vs parent drug: 60 minutes after topical administration; for Delta60 min vs parent drug: parent drug bimatoprost (A-1, B-1) or fluprostenol isopropyl ester (Comp. 9-13); for Mean IOP changes vs vehicle and baseline, 90 min: 90 min after topical application; for Mean IOP changes vs vehicle and baseline, 90 min / Mean IOP changes vs vehicle and baseline, 180 min / Mean IOP changes vs vehicle and baseline, 300 min: treatment group B (pneumatonometer); for Mean IOP changes vs vehicle and baseline, 180 min: 180 min after topical application; for Mean IOP changes vs vehicle and baseline, 300 min: 300 min after topical application; for Mean IOP changes vs vehicle and baseline, 120 min: 120 min after topical application; for Mean IOP changes vs vehicle and baseline, 120 min / Mean IOP changes vs vehicle and baseline, 240 min: treatment group A (Tono-Pen VET); for Mean IOP changes vs vehicle and baseline, 240 min: 240 min after topical application; for Maximal IOP reduc.: topical application
Description: Intraocular Pressure (IOP) Lowering Activity in Hypertonic Saline-Induced IOP Increase in Rabbits
Compounds (9), (10), (11), (12) and (13) of the invention and compounds (A-1) and (B-1) disclosed in WO 2009/136281 were directly compared with fluprostenol isopropyl ester and bimatoprost, in the same model of ocular hypertensive rabbit. The hypotensive effects of the two groups of compounds were independently evaluated at different time points and in different sets of hypertensive rabbits.
Test compounds and dose (equimolar to the correspondent parent drug)
Vehicle: buffered aqueous solution pH 6, polyoxyl 40 hydrogenated castor oil 5 mg/ml, tromethamine 10 mg/ml, boric acid 6 mg/ml, mannitol 40 mg/ml, edetate disodium 0.5 mg/ml and benzalkonium chloride 0.15 mg/mL
Male New Zealand white rabbits weighing 2.0-2.5 kg were used in the experiments. The transient increase in IOP was induced by the injection of 0.1 ml of hypertonic saline solution (5%) into the vitreous of both eyes.
(§1) Intraocular pressure (IOP) was determined using a Tono-Pen VET prior to hypertonic saline injection (basal) and at 30, 60, 120 and 240 min thereafter. Vehicle or tested compound dissolved in the vehicle was instilled immediately after the injection of hypertonic saline into the conjunctival pocket. Eyes were randomly assigned to different treatment groups.
One drop of 0.4% oxybuprocaine hydrochloride (Novesine, Sandoz) was instilled in each eye immediately before each set of pressure measurements.
Treatment Groups B (Prior Art Compounds)
Vehicle: tween 80 0.5%, 0.2 mg/ml benzalkonium chloride, 0.3% DMSO in PBS pH 6.7
as §1, with “pneumatonometer” for “Tono-Pen VET”, “90, 180” for “120”, “300” for “240”
The intraocular pressure values measured following topical application of the tested compounds are reported in Table 1 expressed as mean IOP change in treated eyes versus vehicle-treated eyes at same time point and baseline; Table 1 also reports the maximal IOP reduction of the tested compounds expressed in percentage.

Row | Compound | Mean IOP changes vs vehicle and baseline, 60 min [mmHg] | IOP60 min reduction vs vehicle [%] | Delta60 min vs parent drug | Mean IOP changes vs vehicle and baseline, 90 min [mmHg] | Mean IOP changes vs vehicle and baseline, 180 min [mmHg] | Mean IOP changes vs vehicle and baseline, 300 min [mmHg] | Mean IOP changes vs vehicle and baseline, 120 min [mmHg] | Mean IOP changes vs vehicle and baseline, 240 min [mmHg] | Maximal IOP reduc. [%]
1 | CCNC(=O)CCC/C=C\C[C@@H]1[C@@H](/C=C/[C@@H](O)CCc2ccccc2)[C@H](O)C[C@@H]1O [Bimatoprost, reference compound] | −1.8 ± 2.4 | 1 | 0 mmHg | −2.7 ± 2.0 | 0.8 ± 1.5 | 0.3 ± 2.6 | – | – | –
2 | CC(C)OC(=O)CCC/C=C\C[C@@H]1[C@@H](/C=C/[C@H](COc2cccc(C(F)(F)F)c2)OC(=O)CCCCCO[N+](=O)[O-])[C@H](O)C[C@@H]1O [Comp. (9)] | −6.6 ± 0.9 | 20 | −6.5 mmHg | – | – | – | −8.2 ± 1.2 | −2.0 ± 0.7 | 23 ± 3
3 | CC(C)OC(=O)CCC/C=C\C[C@@H]1[C@@H](/C=C/[C@H](COc2cccc(C(F)(F)F)c2)OC(=O)CCCC(CO[N+](=O)[O-])O[N+](=O)[O-])[C@H](O)C[C@@H]1O (stereo partly drawn) [Comp. (10), (Z)-isopropyl 7-((1R,2R,3R,5S)-2-((3R,E)-3-(5,6-bis(nitrooxy)hexanoyloxy)-4-(3-(trifluoromethyl)phenoxy)but-1-enyl)-3,5-dihydroxycyclopentyl)hept-5-enoate] | −9.2 ± 1.0 | 28 | −9.1 mmHg | – | – | – | −8.8 ± 1.2 | −1.2 ± 0.8 | 26 ± 3
4 | CC(C)OC(=O)CCC/C=C\C[C@@H]1[C@@H](/C=C/[C@H](COc2cccc(C(F)(F)F)c2)OC(=O)COCCO[N+](=O)[O-])[C@H](O)C[C@@H]1O [Comp. (11), (Z)-isopropyl 7-((1R,2R,3R,5S)-3,5-dihydroxy-2-((R,E)-3-(2-(2-nitrooxyethoxy)acetoxy)-4-(3-(trifluoromethyl)phenoxy)but-1-enyl)cyclopentyl)hept-5-enoate] | −9.7 ± 0.8 | 32 | −9.6 mmHg | – | – | – | −7.4 ± 0.9 | −3.2 ± 0.6 | 37 ± 4
5 | CC(C)OC(=O)CCC/C=C\C[C@@H]1[C@@H](/C=C/[C@H](COc2cccc(C(F)(F)F)c2)OC(=O)CCOCC(CO[N+](=O)[O-])O[N+](=O)[O-])[C@H](O)C[C@@H]1O (stereo partly drawn) [Comp. (12), (Z)-isopropyl 7-((1R,2R,3R,5S)-2-((3R,E)-3-(3-(2,3-bis(nitrooxy)propoxy)propanoyloxy)-4-(3-(trifluoromethyl)phenoxy)but-1-enyl)-3,5 dihydroxycyclopentyl)hept-5-enoate] | −7.1 ± 0.8 | 22 | −7.0 mmHg | – | – | – | −9.6 ± 1.0 | −2.9 ± 0.5 | 38 ± 3
6 | O=C(O)CCC/C=C\C[C@@H]1[C@@H](/C=C/[C@H](COc2cccc(C(F)(F)F)c2)OC(=O)CCCC(CO[N+](=O)[O-])O[N+](=O)[O-])[C@H](O)C[C@@H]1O (stereo partly drawn) [Comp. (13), (Z)-7-((1R,2R,3R,5S)-2-((R,E)-3-(5,6-bis(nitrooxy)hexanoyloxy)-4-(3-(trifluoromethyl)phenoxy)but-1-enyl)-3,5-dihydroxycyclopentyl)hept-5-enoic acid] | −8.6 ± 1.2 | 31 | −8.5 mmHg | – | – | – | −6.9 ± 0.9 | −0.3 ± 1.0 | 39 ± 3
7 | CCNC(=O)CCC/C=C\C[C@@H]1[C@@H](/C=C/[C@H](CCc2ccccc2)OC(=O)CCCO[N+](=O)[O-])[C@H](O)C[C@@H]1O [Compound A-1, (1S,2E)-3-{(1R,2R,3 S,5R)-2-[(2Z)-7-(Ethylamino)-7-oxohept-2-en-1-yl]-3,5-dihydroxycyclopentyl}-1-(2-phenylethyl)prop-2-en-1-yl 4-(nitrooxy) butanoate, reference compound] | −0.06 ± 5.2 | 4 | Not effective | 0.03 ± 5.0 | 1.1 ± 2.8 | −1.9 ± 3.2 | – | – | 3 ± 9
8 | CCNC(=O)CCC/C=C\C[C@@H]1[C@@H](/C=C/[C@H](CCc2ccccc2)OC(=O)CCCCCO[N+](=O)[O-])[C@H](O)C[C@@H]1O [Compound B-1, (1S,2E)-3-{(1R,2R,3S,5R)-2-[(2Z)-7-(Ethylamino)-7-oxohept-2-en-1-yl]-3,5-dihydroxycyclopentyl}-1-(2-phenylethyl)prop-2-en-1-yl 6-(nitrooxy) hexanoate, reference compound] | −3.9 ± 2.5 | 7 | −2.1 mmHg | −5.6 ± 2.8 | 5.3 ± 1.5 | −3.9 ± 1.9 | – | – | 10 ± 3
9 | CC(C)OC(=O)CCC/C=C\C[C@@H]1[C@@H](/C=C/[C@@H](O)COc2cccc(C(F)(F)F)c2)[C@H](O)C[C@@H]1O [Fluprostenol isopropyl ester, reference compound] | −0.08 ± 1.2 | 3 | 0 mmHg | – | – | – | −2.0 ± 1.3 | −0.4 ± 0.9 | –
